Results published in US20170152239A1, “BENZAMIDE AND HETEROBENZAMIDE COMPOUNDS” (PFIZER INC., priority 2012, published 2017).

Biological target: WT EZH2 (EZH2 4 protein complex: EZH2, EED, SUZ12, RbAp48) (Homo sapiens, UniProt O75530+Q09028+Q15022+Q15910)
Experiment: WT EZH2 nucleosome assay
Format: biochemical
Conditions: nucleosome assay, 5 nM EZH2 4-protein complex, 1.5 μM SAM; read-out: WT EZH2 IC50
Procedure: Nucleosome Assay Protocol:
A. Compound preparation • 1. Prepare 10 mM stock solutions in 100% DMSO from solid material • 2. Serial dilute 10 mM compound stocks either 2 or 3-fold in 100% DMSO to generate compounds for 11 point dose response
B. Reagent preparation • 1. Prepare 1× assay buffer containing 100 mM Tris pH 8.5, 4 mM DTT and 0.01% Tween-20 • 2. Dilute purified HeLA oligonucleosomes and recombinant histone H1 (New England Biolabs) in assay buffer to 1.67×. • 3. Dilute EZH2 4 protein complex (EZH2, EED, SUZ12, RbAp48) to 3.5× in assay buffer • 4. Prepare 10×^3H SAM solution in assay buffer using 0.94 μCi/well of radioactive SAM (Perkin Elmer) and sufficient non-labeled SAM (Sigma) for 1.5 μM final concentration. • 5. Dilute TCA to 20% in DI water
C. Enzyme reaction • 1. Final reaction conditions are 5 nM EZH2 4-protein complex, 1.5 μM SAM, 25 μg/mL oligonucleosomes, 50 nM rH1 in a 50 μl reaction volume. • 2. Add 1 μl of diluted compound to the assay plate (96-well V-bottom polypropylene plates) or 1 μl of DMSO for control wells. • 3. Add 30 μl of nucleosomes to the assay plate • 4. Add 14 μl of EZH2 4 protein complex to the assay plate • 5. Add 5 μl of ^3H SAM to start the reaction. • 6. Stop the reaction after 60 minutes with the addition of 100 μl of 20% TCA • 7. Transfer 150 μl of quenched reaction into a prepared filterplate (Millipore #MSIPN4B10) • 8. Apply vacuum to the filterplate to filter the reaction mix through the membrane. • 9. Wash the filterplate with 8×200 μl of PBS, blot dry and dry in an oven for 30 minutes • 10. Add 50 μl of microscint-20 scintillation fluid (Perkin Elmer) to each well, wait 30 minutes and count on a liquid scintillation counter.
D. Data analysis • 1. IC50 values were determined by fitting the data to a 4-parameter IC50 equation using proprietary curve fitting software.
Wild type (WT) EZH2% Effect at 20 μM and IC50 values (μM) generated in WT EZH2 or EZH2PRC2 mutant Y641N nucleosome assays are provided in Table 3 below. A blank entry in the table indicates the data was not generated in that assay.

Sequence of WT EZH2 (EZH2 4 protein complex: EZH2, EED, SUZ12, RbAp48) (Q15910 whole entry): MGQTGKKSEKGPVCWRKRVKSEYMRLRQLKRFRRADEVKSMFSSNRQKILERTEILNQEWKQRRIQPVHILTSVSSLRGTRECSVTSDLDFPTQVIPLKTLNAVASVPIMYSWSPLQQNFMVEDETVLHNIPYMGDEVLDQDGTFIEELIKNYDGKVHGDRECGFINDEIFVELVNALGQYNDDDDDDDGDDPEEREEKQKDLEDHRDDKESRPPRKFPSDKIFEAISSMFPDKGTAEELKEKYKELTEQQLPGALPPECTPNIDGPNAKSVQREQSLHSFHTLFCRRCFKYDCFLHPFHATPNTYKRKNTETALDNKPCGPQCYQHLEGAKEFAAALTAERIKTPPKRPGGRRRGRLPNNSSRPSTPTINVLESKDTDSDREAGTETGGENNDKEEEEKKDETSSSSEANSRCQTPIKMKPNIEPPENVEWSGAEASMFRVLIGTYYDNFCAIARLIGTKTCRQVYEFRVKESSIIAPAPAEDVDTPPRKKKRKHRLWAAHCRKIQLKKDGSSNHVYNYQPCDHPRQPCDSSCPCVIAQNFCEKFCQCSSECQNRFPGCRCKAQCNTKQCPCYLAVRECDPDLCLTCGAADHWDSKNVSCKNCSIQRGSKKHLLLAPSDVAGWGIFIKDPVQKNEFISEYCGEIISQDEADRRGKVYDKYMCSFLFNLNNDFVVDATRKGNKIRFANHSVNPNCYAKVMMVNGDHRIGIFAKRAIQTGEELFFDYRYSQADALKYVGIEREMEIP
Sequence of WT EZH2 (EZH2 4 protein complex: EZH2, EED, SUZ12, RbAp48) (O75530 whole entry partner): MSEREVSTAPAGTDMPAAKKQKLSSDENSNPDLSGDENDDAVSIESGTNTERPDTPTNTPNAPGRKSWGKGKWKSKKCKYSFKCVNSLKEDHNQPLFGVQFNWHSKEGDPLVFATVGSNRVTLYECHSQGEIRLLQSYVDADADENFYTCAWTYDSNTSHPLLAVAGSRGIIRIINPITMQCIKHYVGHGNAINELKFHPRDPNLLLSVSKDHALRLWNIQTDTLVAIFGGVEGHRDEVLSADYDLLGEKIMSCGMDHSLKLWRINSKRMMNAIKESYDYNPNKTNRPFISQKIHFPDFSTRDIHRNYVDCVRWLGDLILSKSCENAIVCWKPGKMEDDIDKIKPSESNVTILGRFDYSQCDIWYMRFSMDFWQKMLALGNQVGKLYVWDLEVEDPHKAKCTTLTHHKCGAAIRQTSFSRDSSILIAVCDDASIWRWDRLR
Sequence of WT EZH2 (EZH2 4 protein complex: EZH2, EED, SUZ12, RbAp48) (Q15022 whole entry partner): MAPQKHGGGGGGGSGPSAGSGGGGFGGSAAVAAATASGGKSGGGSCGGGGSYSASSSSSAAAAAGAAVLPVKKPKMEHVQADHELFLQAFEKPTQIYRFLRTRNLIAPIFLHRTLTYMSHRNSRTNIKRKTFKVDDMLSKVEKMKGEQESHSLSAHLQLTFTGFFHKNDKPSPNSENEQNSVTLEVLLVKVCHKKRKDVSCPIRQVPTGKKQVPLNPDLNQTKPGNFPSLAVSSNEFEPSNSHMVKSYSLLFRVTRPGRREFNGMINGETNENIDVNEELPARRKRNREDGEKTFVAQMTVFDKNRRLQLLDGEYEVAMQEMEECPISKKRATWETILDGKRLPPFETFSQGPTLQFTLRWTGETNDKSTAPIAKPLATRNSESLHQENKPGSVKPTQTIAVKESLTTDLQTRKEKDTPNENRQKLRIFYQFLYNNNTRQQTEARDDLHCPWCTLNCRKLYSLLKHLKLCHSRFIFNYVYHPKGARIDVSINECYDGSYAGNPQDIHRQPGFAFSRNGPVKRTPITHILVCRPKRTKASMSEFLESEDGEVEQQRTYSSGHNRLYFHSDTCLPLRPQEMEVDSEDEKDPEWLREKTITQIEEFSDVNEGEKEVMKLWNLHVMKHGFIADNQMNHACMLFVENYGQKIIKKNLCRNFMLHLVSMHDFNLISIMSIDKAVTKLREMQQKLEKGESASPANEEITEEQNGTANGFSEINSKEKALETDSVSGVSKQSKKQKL
Sequence of WT EZH2 (EZH2 4 protein complex: EZH2, EED, SUZ12, RbAp48) (Q09028 whole entry partner): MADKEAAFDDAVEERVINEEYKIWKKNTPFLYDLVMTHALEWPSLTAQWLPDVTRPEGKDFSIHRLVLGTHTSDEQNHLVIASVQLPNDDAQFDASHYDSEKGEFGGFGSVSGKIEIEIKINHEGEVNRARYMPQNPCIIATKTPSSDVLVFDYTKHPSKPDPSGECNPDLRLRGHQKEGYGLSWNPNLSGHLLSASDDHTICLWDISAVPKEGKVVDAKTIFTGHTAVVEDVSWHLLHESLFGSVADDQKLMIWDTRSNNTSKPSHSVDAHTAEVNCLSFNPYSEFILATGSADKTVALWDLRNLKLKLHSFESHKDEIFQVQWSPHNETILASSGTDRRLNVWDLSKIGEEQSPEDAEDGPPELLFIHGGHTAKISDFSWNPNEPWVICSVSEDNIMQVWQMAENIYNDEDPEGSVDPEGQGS

Compound	IC50 [nM]
Cc1cc(C)c(CNC(=O)c2cccc(-c3c(C)cnn3C)c2C)c(=O)[nH]1 [Example 1, N-[(4,6-dimethyl-2-oxo-1,2-dihydropyridin-3-yl)methyl]-3-(1,4-dimethyl-1H-pyrazol-5-yl)-2-methylbenzamide]	470
Cc1cc(C)c(CNC(=O)c2cccc(-c3c(C)n[nH]c3C)c2C)c(=O)[nH]1 [Example 3, N-[(4,6-dimethyl-2-oxo-1,2-dihydropyridin-3-yl)methyl]-3-(3,5-dimethyl-1H-pyrazol-4-yl)-2-methylbenzamide]	920
Cc1cc(C)c(CNC(=O)c2cccc(-c3c(C)ncn3C)c2C)c(=O)[nH]1 [Example 4, 3-(1,4-dimethyl-1H-imidazol-5-yl)-N-[(4,6-dimethyl-2-oxo-1,2-dihydropyridin-3-yl)methyl]-2-methylbenzamide]	230
Cc1cc(C)c(CNC(=O)c2cc(Cl)cc(-c3c(C)cnn3C)c2C)c(=O)[nH]1 [Example 7, 5-chloro-N-[(4,6-dimethyl-2-oxo-1,2-dihydropyridin-3-yl)methyl]-3-(1,4-dimethyl-1H-pyrazol-5-yl)-2-methylbenzamide]	220
CCCc1cc(C)[nH]c(=O)c1CNC(=O)c1cc(Cl)cc(-c2ccnn2C)c1C [Example 8, 5-chloro-2-methyl-N-[(6-methyl-2-oxo-4-propyl-1,2-dihydropyridin-3-yl)methyl]-3-(1-methyl-1H-pyrazol-5-yl)benzamide]	880
Cc1cc(C)c(CNC(=O)c2cccc(-c3ccnn3C)c2Cl)c(=O)[nH]1 [Example 9, 2-chloro-N-[(4,6-dimethyl-2-oxo-1,2-dihydropyridin-3-yl)methyl]-3-(1-methyl-1H-pyrazol-5-yl)benzamide]	700
Cc1cc(C)c(CNC(=O)c2cccc(-c3c(Cl)cnn3C)c2C)c(=O)[nH]1 [Example 10, 3-(4-chloro-1-methyl-1H-pyrazol-5-yl)-N-[(4,6-dimethyl-2-oxo-1,2-dihydropyridin-3-yl)methyl]-2-methylbenzamide]	380
Cc1cc(C)c(CNC(=O)c2cccc(-c3c(F)cnn3C)c2C)c(=O)[nH]1 [Example 11, N-[(4,6-dimethyl-2-oxo-1,2-dihydropyridin-3-yl)methyl]-3-(4-fluoro-1-methyl-1H-pyrazol-5-yl)-2-methylbenzamide]	360
Cc1cc(C)c(CNC(=O)c2cc(Cl)cc(-n3c(C)cnc3C)c2C)c(=O)[nH]1 [Example 28, 5-chloro-3-(2,5-dimethyl-1H-imidazol-1-yl)-N-[(4,6-dimethyl-2-oxo-1,2-dihydropyridin-3-yl)methyl]-2-methylbenzamide]	260
Cc1cc(C)c(CNC(=O)c2cc(Cl)cc(-n3ccnc3C)c2C)c(=O)[nH]1 [Example 29, 5-chloro-N-[(4,6-dimethyl-2-oxo-1,2-dihydropyridin-3-yl)methyl]-2-methyl-3-(2-methyl-1H-imidazol-1-yl)benzamide]	710
Cc1cc(C)c(CNC(=O)c2cc(C#N)cc(-c3c(C)cnn3C)c2C)c(=O)[nH]1 [Example 30, 5-cyano-N-[(4,6-dimethyl-2-oxo-1,2-dihydropyridin-3-yl)methyl]-3-(1,4-dimethyl-1H-pyrazol-5-yl)-2-methylbenzamide]	540
Cc1cc(C)c(CNC(=O)c2nc(-c3ccc(N)nc3)nc(-c3ccnn3C)c2C)c(=O)[nH]1 [Example 34, 2-(6-aminopyridin-3-yl)-N-[(4,6-dimethyl-2-oxo-1,2-dihydropyridin-3-yl)methyl]-5-methyl-6-(1-methyl-1H-pyrazol-5-yl)pyrimidine-4-carboxamide]	940
Cc1cc(C)c(CNC(=O)c2cc(F)cc(-c3c(C)cnn3C)c2C)c(=O)[nH]1 [Example 38, N-[(4,6-dimethyl-2-oxo-1,2-dihydropyridin-3-yl)methyl]-3-(1,4-dimethyl-1H-pyrazol-5-yl)-5-fluoro-2-methylbenz-amide]	710
CCc1cnn(C)c1-c1cccc(C(=O)NCc2c(C)cc(C)[nH]c2=O)c1C [Example 39, N-[(4,6-dimethyl-2-oxo-1,2-dihydropyridin-3-yl)methyl]-3-(4-ethyl-1-methyl-1H-pyrazol-5-yl)-2-methylbenz-amide]	870
Cc1cc(C)c(CNC(=O)c2nc(Cl)nc(N3C4CCC3CC4)c2C)c(=O)[nH]1 [Example 40, 6-(7-azabicyclo[2.2.1]hept-7-yl)-2-chloro-N-[(4,6-dimethyl-2-oxo-1,2-dihydropyridin-3-yl)methyl]-5-methylpyrimi-dine-4-carboxamide]	1030

The next compounds have a lower IC50 than those just listed; values first:

IC50 [nM]	Compound
190	Cc1cc(C)c(CNC(=O)c2cc(C3=CCOCC3)cc(-c3ccnn3C)c2C)c(=O)[nH]1 [Example 20, 5-(3,6-dihydro-2H-pyran-4-yl)-N-[(4,6-dimethyl-2-oxo-1,2-dihydropyridin-3-yl)methyl]-2-methyl-3-(1-methyl-1H-pyrazol-5-yl)benzamide]
160	Cc1cc(C)c(CNC(=O)c2cc(-c3cncnc3)cc(-c3ccnn3C)c2C)c(=O)[nH]1 [Example 17, N-[(4,6-dimethyl-2-oxo-1,2-dihydropyridin-3-yl)methyl]-2-methyl-3-(1-methyl-1H-pyrazol-5-yl)-5-pyrimidin-5-ylbenzamide]
160	COc1ncc(-c2cc(C(=O)NCc3c(C)cc(C)[nH]c3=O)c(C)c(-c3c(C)cnn3C)c2)cn1 [Example 25, N-[(4,6-dimethyl-2-oxo-1,2-dihydropyridin-3-yl)methyl]-3-(1,4-dimethyl-1H-pyrazol-5-yl)-5-(2-methoxypyrimidin-5-yl)-2-methylbenzamide]
140	Cc1cc(C)c(CNC(=O)c2cc(-c3cnn(C)c3)cc(-c3ccnn3C)c2C)c(=O)[nH]1 [Example 18, N-[(4,6-dimethyl-2-oxo-1,2-dihydropyridin-3-yl)methyl]-2-methyl-5-(1-methyl-1H-pyrazol-4-yl)-3-(1-methyl-1H-pyrazol-5-yl)benzamide]
110	CCn1ncc(C)c1-c1cccc(C(=O)NCc2c(C)cc(C)[nH]c2=O)c1C [Example 12, N-[(4,6-dimethyl-2-oxo-1,2-dihydropyridin-3-yl)methyl]-3-(1-ethyl-4-methyl-1H-pyrazol-5-yl)-2-methylbenzamide]
41	Cc1cc(C)c(CNC(=O)c2cc(-c3ccc(N)nc3)cc(-c3ccnn3C)c2C)c(=O)[nH]1 [Example 19, 5-(6-aminopyridin-3-yl)-N-[(4,6-dimethyl-2-oxo-1,2-dihydropyridin-3-yl)methyl]-2-methyl-3-(1-methyl-1H-pyrazol-5-yl)benzamide]
19	Cc1cc(C)c(CNC(=O)c2cc(-c3cnc(N4CCOCC4)nc3)cc(-c3c(C)cnn3C)c2C)c(=O)[nH]1 [Example 21, N-[(4,6-dimethyl-2-oxo-1,2-dihydropyridin-3-yl)methyl]-3-(1,4-dimethyl-1H-pyrazol-5-yl)-2-methyl-5-(2-morpholin-4-ylpyrimidin-5-yl)benzamide]
15	Cc1cc(C)c(CNC(=O)c2cc(-c3cnc(N4C5CCC4COC5)nc3)cc(-c3c(C)cnn3C)c2C)c(=O)[nH]1 [Example 23, N-[(4,6-dimethyl-2-oxo-1,2-dihydropyridin-3-yl)methyl]-3-(1,4-dimethyl-1H-pyrazol-5-yl)-2-methyl-5-{2-[3-oxa-8-azabicyclo[3.2.1]oct-8-yl]pyrimidin-5-yl}benzamide]
